Measured values taken from patent US8404738B2 (Hoffmann-La Roche Inc., priority 2011, dated 2013).

Columns and labels:
recombinant human HDAC8 = target: T1, recombinant human HDAC8 (Homo sapiens, UniProt Q9BY41); experiment: HDAC8 inhibition: recombinant HDAC8 fluorometric assay; format: biochemical; settings: recombinant human HDAC8, substrate Ac-Arg-His-Lys-Lys(ε-acetyl)-AMC; read-out: HDAC8 IC50
T1 construct: made in house; host or cells: insect cells
T1 sequence (Q9BY41 1-377): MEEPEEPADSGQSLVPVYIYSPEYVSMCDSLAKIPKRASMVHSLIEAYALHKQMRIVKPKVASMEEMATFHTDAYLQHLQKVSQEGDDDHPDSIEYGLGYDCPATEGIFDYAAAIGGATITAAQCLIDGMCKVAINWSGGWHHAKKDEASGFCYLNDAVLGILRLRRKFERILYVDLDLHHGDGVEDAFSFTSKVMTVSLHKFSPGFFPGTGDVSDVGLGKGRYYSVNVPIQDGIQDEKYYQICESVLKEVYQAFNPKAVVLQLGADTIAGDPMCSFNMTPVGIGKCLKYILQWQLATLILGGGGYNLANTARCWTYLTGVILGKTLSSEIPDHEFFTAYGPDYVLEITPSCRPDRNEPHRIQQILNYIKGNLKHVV
Protocol: HDAC8 Inhibition by Novel Compounds: Recombinant HDAC8 Fluorometric Assay.
A competitive inhibitory assay of HDAC8 was carried out by using recombinant HDAC8 and a commercial substrate Ac-Arg-His-Lys-Lys(ε-acetyl)-AMC.
Compounds were tested for their ability to inhibit histone deacetylase 8 using an in vitro deacetylation assay. The enzyme source for this assay was recombinant human HDAC8 protein expressed and purified from insect cells. […] The substrate consisted of a commercial product Ac-Arg-His-Lys-Lys(ε-acetyl)-AMC (substrate is available from Cayman Chemical). […] 1 μl of half-log diluted compounds were added into wells and incubated for 15 min at rt. After that, 8 μl of substrate solution was transferred to the wells and incubated for 30 min at rt. After deacetylation of the substrate by incubation with HDAC8 enzyme, subsequent exposure to a developing reagent produced a fluorophore that was directly proportional to the level of deacetylation. […] The fluorescence signal was measured by a FlexStation3 plate reader (excitation wave length 340-360 nm; emission wave length 440-465 nm). The HDAC8 IC50 was calculated after normalization and curve fitting using XLfit4.0 software. Inhibition %=[Mean(top)−signal(sample)]×100/[Mean(top)−Mean(bottom)].

HDAC6 = target: T2, HDAC6 (Homo sapiens, UniProt Q9UBN7); experiment: Tubulin acetylation cytoblot assay (A549 cells); format: cell-based; settings: 17-18 h incubation, tubulin acetylation as marker of HDAC6 inhibition, read-out: Tub-Ac EC50
T2 construct: endogenous in cells; host or cells: A549 cells
T2 sequence (Q9UBN7 1-1215): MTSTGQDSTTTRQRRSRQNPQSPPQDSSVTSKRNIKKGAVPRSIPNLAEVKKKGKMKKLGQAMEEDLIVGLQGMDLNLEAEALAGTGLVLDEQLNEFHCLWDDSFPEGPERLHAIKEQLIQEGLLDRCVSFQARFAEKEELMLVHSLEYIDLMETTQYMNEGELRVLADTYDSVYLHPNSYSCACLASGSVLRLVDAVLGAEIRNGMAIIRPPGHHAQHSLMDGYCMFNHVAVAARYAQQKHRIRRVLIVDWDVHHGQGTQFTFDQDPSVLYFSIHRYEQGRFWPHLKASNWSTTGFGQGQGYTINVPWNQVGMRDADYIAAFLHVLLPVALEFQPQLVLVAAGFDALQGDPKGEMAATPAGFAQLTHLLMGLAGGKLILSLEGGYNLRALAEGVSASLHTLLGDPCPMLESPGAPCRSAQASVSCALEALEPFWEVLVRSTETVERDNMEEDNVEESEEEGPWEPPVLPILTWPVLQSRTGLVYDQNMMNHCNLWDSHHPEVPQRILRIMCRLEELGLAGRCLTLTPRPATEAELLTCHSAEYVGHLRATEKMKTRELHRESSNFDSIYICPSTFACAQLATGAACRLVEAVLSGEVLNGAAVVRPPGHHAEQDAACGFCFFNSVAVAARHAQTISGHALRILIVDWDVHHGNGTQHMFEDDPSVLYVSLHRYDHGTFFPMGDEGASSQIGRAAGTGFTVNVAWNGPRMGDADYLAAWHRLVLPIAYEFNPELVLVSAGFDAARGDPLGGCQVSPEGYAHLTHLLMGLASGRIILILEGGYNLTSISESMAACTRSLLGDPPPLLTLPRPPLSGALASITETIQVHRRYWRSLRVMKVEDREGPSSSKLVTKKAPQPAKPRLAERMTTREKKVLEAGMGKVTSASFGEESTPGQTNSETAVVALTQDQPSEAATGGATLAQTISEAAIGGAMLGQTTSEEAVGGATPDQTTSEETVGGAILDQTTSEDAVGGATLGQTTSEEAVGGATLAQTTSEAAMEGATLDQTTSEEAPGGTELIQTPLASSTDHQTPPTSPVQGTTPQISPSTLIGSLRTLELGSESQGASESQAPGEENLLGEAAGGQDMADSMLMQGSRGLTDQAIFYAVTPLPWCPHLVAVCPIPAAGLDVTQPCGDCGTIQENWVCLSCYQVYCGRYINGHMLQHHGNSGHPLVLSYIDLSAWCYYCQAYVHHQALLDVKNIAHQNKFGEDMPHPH
Protocol: Tubulin Acetylation Induction by Novel Compounds: Tubulin Acetylation Cytoblot Assay.
Tubulin acetylation is a PD marker for HDAC6 inhibition. The extent of tubulin acetylation represents the inhibitory effect on HDAC6.
Novel compounds were tested for their ability to inhibit HDAC6 using a cell-based deacetylation assay. Tubulin acetylation was detected by the anti-acetylated tubulin antibody (Sigma) and horse radish peroxidase (HRP) conjugated secondary antibody (KangChen Bio. Tech.). […] 20 μl of diluted compound solution was transferred to the cell culture plate and incubated for 17-18 h. After medium removal and fixation by formaldehyde (3.7% paraformaldehyde in TBS), the cells in the plates were treated with 180 μl of −20° C. MeOH and incubated for 5 min at rt. The cell lysis was incubated with 75 μl of primary anti-acetylated tubulin antibody and secondary HRP conjugated antibody solution (1:750 anti-acetylated tubulin, 1:750 HRP conjugated anti-mouse IgG in antibody dilution buffer not containing sodium azide) for 4 h at 4° C. By adding the HRP substrate, enhanced chemiluminescence (ECL) reagent (GE Healthcare) generated luminescence corresponding to the level of tubulin acetylation. So that 75 μl of ECL was added into the wells and the luminescence from each well was immediately quantified by the plate reader. Based on the luminescence reading, the Tub-Ac EC50s against HDAC6 of the tested compounds were calculated by plotting the curve with XLfit4.0 software. Inhibition %=[signal(sample)−Mean(bottom)]×100/[Mean(top)−Mean(bottom)]

[1] = tested on: p21 promoter-luciferase construct; experiment: p21 reporter gene induction (HeLa cells, p21 promoter-luciferase construct); settings: for p21 RP3: relative gene level of p21 compared to MS275 at 3 μM; for p21 RP10: relative level of p21 compared to MS275 at 10 μM; for p21 RP30: relative level of p21 compared to MS275 at 30 μM;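 on all read-outs here: transfected HeLa cells exposed to compound for 15 h, luciferase luminescence read from lysates, p21 promoter lacks p53 site, proxy for cellular HDAC1/2/3 inhibition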

Structure (SMILES) | IC50 (recombinant human HDAC8) [µM] | EC50 (HDAC6) [µM] | p21 RP3 [1] | p21 RP10 [1] | p21 RP30 [1]
O=C(NO)c1ccc(NC2CCN(c3ccccc3F)C2=O)cc1 (centres unmarked) [Example 2, 4-[1-(2-Fluoro-phenyl)-2-oxo-pyrrolidin-3-ylamino]-N-hydroxy-benzamide] | 0.84 | 4.02 | 0.33 | 0.26 | 0.46
O=C(NO)c1ccc(NC2CCN(c3ccccc3)C2=O)cc1F (centres unmarked) [Example 66, 2-Fluoro-N-hydroxy-4-(2-oxo-1-phenyl-pyrrolidin-3-ylamino)-benzamide] | 1.25 | 2.42 | 0.01 | 0.01 | 0.00
O=C(NO)c1ccc(NC2CCN(c3ccc(Cl)cc3Cl)C2)cc1 (centres unmarked) [Example 82, 4-[1-(2,4-Dichloro-phenyl)-pyrrolidin-3-ylamino]-N-hydroxy-benzamide] | 2.36 | 1.43 | 0.14 | −0.08 | −0.06
CC(C)(c1cccc(Cl)c1)N1CCC(Nc2ccc(C(=O)NO)cc2)C1=O (centres unmarked) [Example 49, 4-{1-[1-(3-Chloro-phenyl)-1-methyl-ethyl]-2-oxo-pyrrolidin-3-ylamino}-N-hydroxy-benzamide] | 0.49 | 9.86 | 0.41 | 0.50 | 0.85
CC1(Nc2ccc(C(=O)NO)cc2)CCN(c2cnc3ccccc3c2)C1=O (centres unmarked) [Example 61, N-Hydroxy-4-(3-methyl-2-oxo-1-quinolin-3-yl-pyrrolidin-3-ylamino)-benzamide] | 1.42 | 8.25 | 0.46 | 0.09 | 0.17
CC(C)(C)c1ccc(N2CCC(Nc3ccc(C(=O)NO)cc3)C2=O)cc1 (centres unmarked) [Example 16, 4-[1-(4-tert-Butyl-phenyl)-2-oxo-pyrrolidin-3-ylamino]-N-hydroxy-benzamide] | 1.87 | 1.06 | 0.17 | 0.12 | −0.03

Further molecules by falling IC50 (recombinant human HDAC8), results first:

IC50 (recombinant human HDAC8) [µM] | EC50 (HDAC6) [µM] | Structure (SMILES) | p21 RP3 [1] | p21 RP10 [1] | p21 RP30 [1]
2.08 | 0.2 | CC1(Nc2ccc(C(=O)NO)cc2)C(=O)N(c2ccc(Cl)cc2)c2ccc(F)cc21 (centres unmarked) [Example 97, 4-[1-(4-Chloro-phenyl)-5-fluoro-3-methyl-2-oxo-2,3-dihydro-1H-indol-3-ylamino]-N-hydroxy-benzamide] | 2.39 | 3.56 | 0.07
1.3 | 1.73 | CC(C)Oc1cccc(N2CCC(Nc3ccc(C(=O)NO)cc3)C2=O)c1 (centres unmarked) [Example 9, N-Hydroxy-4-[1-(3-isopropoxy-phenyl)-2-oxo-pyrrolidin-3-ylamino]-benzamide] | 0.24 | 0.13 | 0.23
1.21 | 0.96 | O=C(NO)c1ccc(NC2CCN(c3ccc(F)c(Cl)c3)C2=O)cc1 (centres unmarked) [Example 20, 4-[1-(3-Chloro-4-fluoro-phenyl)-2-oxo-pyrrolidin-3-ylamino]-N-hydroxy-benzamide] | 0.37 | 0.10 | 0.12
1.01 | 1.84 | COc1cccc(N2CC(Nc3ccc(C(=O)NO)cc3)CC2=O)c1 (centres unmarked) [Example 74, N-Hydroxy-4-[1-(3-methoxy-phenyl)-5-oxo-pyrrolidin-3-ylamino]-benzamide] | −0.07 | 0.07 | 0.12
0.97 | 0.68 | O=C(NO)c1ccc(NC2CCN(c3cccc(-n4cccc4)c3)C2=O)cc1 (centres unmarked) [Example 33, N-Hydroxy-4-[2-oxo-1-(3-pyrrol-1-yl-phenyl)-pyrrolidin-3-ylamino]-benzamide] | 0.45 | 0.41 | 0.18
0.85 | 1.25 | C[C@H]1[C@H](Nc2ccc(C(=O)NO)cc2)CC(=O)N1c1ccc(Cl)cc1 (racemic) [Example 77, Trans-4-[1-(4-Chloro-phenyl)-2-methyl-5-oxo-pyrrolidin-3-ylamino]-N-hydroxy-benzamide] | 0.00 | 0.07 | 0.07
0.85 | 0.08 | CC1(Nc2ccc(C(=O)NO)cc2)C(=O)N(c2ccccc2)c2ccccc21 (centres unmarked) [Example 95, N-hydroxy-4-(3-methyl-2-oxo-1-phenyl-2,3-dihydro-1H-indol-3-ylamino)-benzamide] | 0.58 | 0.39 | 0.60
0.68 | 4.6 | CC(C)(c1ccccc1Cl)N1CCC(Nc2ccc(C(=O)NO)cc2)C1=O (centres unmarked) [Example 48, 4-{1-[1-(2-Chloro-phenyl)-1-methyl-ethyl]-2-oxo-pyrrolidin-3-ylamino}-N-hydroxy-benzamide] | 0.24 | 0.08 | 0.23
0.61 | 2.04 | O=C(NO)c1ccc(NC2CCN(c3cccc(-c4cnco4)c3)C2=O)cc1 (centres unmarked) [Example 35, N-Hydroxy-4-[1-(3-oxazol-5-yl-phenyl)-2-oxo-pyrrolidin-3-ylamino]-benzamide] | 0.44 | 0.25 | 0.20
0.16 | 0.3 | CC1(Nc2ccc(C(=O)NO)cc2)CCN(c2cccc(Cl)c2)C1=O (centres unmarked) [Example 59, 4-[1-(3-Chloro-phenyl)-3-methyl-2-oxo-pyrrolidin-3-ylamino]-N-hydroxy-benzamide] | 0.23 | 0.22 | 0.24
